Laboratory results from a melting point compilation (Tetko et al.; mined from patent text by program, amines drawn as free bases though some values may be those of a salt).

First: CCNC(=NC#N)Nc1ccc(C2=NNC(=O)CC2C)cc1 (stereo not given)
Second: CCNc1nc(-c2ccccc2)c(-c2ccc(=O)n(C(C)C)n2)s1
The melting point of the first is higher: 208 to 209 °C for the first, 167 to 169 °C for the second.

First: CC1(C)CCC(C)(C)c2cc(-c3ccc4cc(C(=O)O)cc(O)c4c3)ccc21
Second: CN1CCC(c2c[nH]c3ccc(C(=O)c4ccc(N(C)C)cc4)cc23)CC1
The melting point of the first is higher: 299 °C for the first, 103 to 104 °C for the second.

First: O=C(O)c1nn(Cc2ccccc2)c2c1CCc1cc(OCc3cncnc3)ccc1-2
Second: O=C(O)CCc1cn(Cc2ccc(OCc3csc(-c4cccnc4)n3)cc2)cc1-c1ccccc1
The melting point of the first is higher: 236 to 237 °C for the first, 118 to 119 °C for the second.

`[N-]=[N+]=N[C@@H](C(=O)O)C(c1ccccc1)c1ccccc1` and `Cc1nc(-c2cn(Cc3ccccc3)nn2)sc1C(=O)NCc1ccccc1` cannot be ordered by melting point: 108 to 110 °C for the first, 108 to 109 °C for the second.

First: CCOC(=O)CC[C@H](NC(=O)c1ccc(N)c(C)c1)C(=O)OCC
Second: CCOC(=O)COc1ccc(OCc2ccccc2)cc1C(Nc1ccc(C(N)=S)cc1)C(=O)OCC (racemic)
The melting point of the first is lower: 79 to 82 °C for the first, 166 °C for the second.

First: CCn1c(Oc2cccc(NC=O)c2)nnc1[C@@H](C)NS(=O)(=O)c1ccc(Cl)c(Cl)c1
Second: O=CC(Cl)=Cc1cccc(Oc2ccc([N+](=O)[O-])c([N+](=O)[O-])c2)c1
The melting point of the first is higher: 168 to 170 °C for the first, 100 to 101 °C for the second.

Compared with `CC(=O)C(=Cc1cccc([N+](=O)[O-])c1)C(=O)OCCBr`, `CCOC(=O)C1=C(C)Nc2ccccc2NC1c1cccc([N+](=O)[O-])c1` (stereo not given) is higher in melting point: 94.5 to 95.5 °C for the first, 148 to 150 °C for the second.

Compared with `CSCCn1nc(O)c2[nH]c3cc(Cl)ccc3c(=O)c2c1=O`, `Cc1cc(O)c(SCc2ccccc2F)c(=O)o1` is lower in melting point: 275 to 277 °C for the first, 123 to 125 °C for the second.

Compared with `Nc1cc(Oc2ccc3c(C(=O)Nc4cccc(C(F)(F)F)c4)cccc3c2)ncn1`, `COc1cc(CCC(=O)O)ccc1OCc1oc(-c2ccc(C(F)(F)F)cc2)nc1C` is lower in melting point: 243 to 244 °C for the first, 162 to 163 °C for the second.

First: Brc1ccc(N2CCC(Cc3ccccc3)CC2)nc1
Second: Ic1ccc2c(c1)C(c1ccccc1)=NCc1nnc(Cc3ccccc3)n1-2
The melting point of the first is lower: 78 °C for the first, 200 to 201 °C for the second.

Compared with `COc1ccc(C(=O)Nc2cc(N)ccc2Br)cc1OC`, `COc1cccc(-n2c(=O)c3c(c4cccnc42)OC(COC(C)=O)C3)c1` (stereo not given) is higher in melting point: 154 to 155 °C for the first, 183 to 184 °C for the second.

First: CCOCOC1(C(=O)CO)C(CC)CC2C3CC(CC)C4=CC(=O)C=CC4(C)C3C(O)CC21C (stereo not given)
Second: Cc1c(NC(=O)CC(C)(C)C)cc2c(c1C)OC(C)(C)C2Nc1ccccc1 (stereo not given)
The melting point of the first is lower: 100 to 102 °C for the first, 151 to 152 °C for the second.

First: COc1c(C(C)(C)C)cc(C(=O)O)cc1C(C)(C)C
Second: COc1ccc2c(=O)cc(SC)sc2c1
The melting point of the first is higher: 192 to 195 °C for the first, 133 to 135 °C for the second.

Compared with `CCOC(=O)c1nn(-c2ccc(C)cc2)nc1-c1ccccc1`, `COCCO[C@@H]1c2ccn3c(C)c(C)nc3c2N[C@H](c2ccccc2)[C@H]1OC(=O)OC` is higher in melting point: 74 to 75 °C for the first, 176 to 177 °C for the second.

Compared with `C[Si](C)(C)c1cccc2c1S(=O)c1c(cccc1[Si](C)(C)C)S2`, `CS(=O)c1cc(-c2nc(=O)c3ccccc3s2)ccn1` (stereo not given) is lower in melting point: 210 to 211 °C for the first, 172 to 174 °C for the second.

First: CCCCc1cc(CCCc2c3c(nn2CCC)c(N)nc2ccccc23)no1
Second: CCCCc1c(-c2cc(C)c(OC)c(C)c2)[nH]c2ccccc12
The melting point of the first is higher: 132 to 133 °C for the first, 76.8 to 77.7 °C for the second.

First: COC(=O)c1cc(-n2c(OC)nc(C(F)(F)C(F)(F)F)cc2=O)c(F)cc1Cl
Second: COC(=O)C=CC(=O)OC(=C1C(=O)N(C(N)=O)c2cc(Cl)c(F)cc21)c1cccs1
The melting point of the first is lower: 80 to 82 °C for the first, 184 to 186 °C for the second.

First: CN(C)C=Cc1ncc([N+](=O)[O-])n1CCO
Second: CCOC(=O)c1ccc(F)cn1
The melting point of the first is higher: 155 to 157 °C for the first, 61 to 63 °C for the second.

First: CSc1nc(O)cc(O)n1
Second: C=CCOc1cccc(C(C)=O)c1O
The melting point of the first is higher: > 250 °C for the first, 51 to 52 °C for the second.

First: Cc1nc(N)c2ncn(CCCCNC(=O)N3CCOCC3)c2c1C
Second: Cc1cc(CN(C(=O)CCl)c2c(C)cccc2C)on1
The melting point of the first is higher: 164 to 167 °C for the first, 78 to 82 °C for the second.

First: CN(C)C(=O)n1cc(C(=O)C2CSC(c3cccnc3)N2)c2ccc(Oc3ccc(F)cc3)cc21 (stereo not given)
Second: COc1ccc(COc2ccc(C(=O)C3=C(O)C(=O)N(c4ccc(C)nn4)C3c3ccc(OC(F)(F)F)cc3)cc2)cc1 (stereo not given)
The melting point of the first is lower: 72 to 75 °C for the first, 206 to 209 °C for the second.

First: O=C(CI)Oc1cccc2c1C(=O)c1cn3c(c1C2=O)Cc1ccccc1C3
Second: NC(=O)CN1C(=O)[C@@H](N)[C@H](c2ccccc2)Sc2cc(Cl)ccc21 (relative stereo)
The melting point of the first is higher: > 260 °C for the first, 225 to 228 °C for the second.

Compared with `NC(=O)NN=C1c2ncc(Cl)cc2C=CC1Cl` (stereo not given), `CCC1(CCCCl)C(=O)Nc2ccccc21` (stereo not given) is lower in melting point: > 280 °C for the first, 91 to 93 °C for the second.

First: CCN(C(C)=O)c1ccc(O)cc1
Second: CC(=O)SC(CC(=O)c1ccccc1)C(=O)O (stereo not given)
The melting point of the first is higher: 183 to 185 °C for the first, 90 °C for the second.

Compared with `CN1CC(c2cccc(C(F)(F)F)c2)C(=O)C(c2ccccc2Cl)C1` (stereo not given), `O=c1[nH]c2ccc(C3CCNCC3)cc2[nH]1` is higher in melting point: 90 to 92 °C for the first, 214 to 215 °C for the second.
